Laboratory results reported in US20210198647A1, “Enhancers of Neurolysin Activity” (Texas Tech University System, priority 2018, published 2021).
Where “and” joins values, the source holds several entries; their conditions need not be identical. Identical values can stand only once. Like-named read-outs stand apart in the source and are kept apart here. Marks after values point to notes of the source that are not given here. Peptide text beside a SMILES is read from it.

Key:
[1] = molecular target: T1, rat recombinant neurolysin (Rattus norvegicus, UniProt P42676); assay: Enzymatic assay: QFS hydrolysis by rat recombinant neurolysin; format: biochemical; details: for Km value decreased by / Vmax increased by: 40 μM modulator; for Vmax: QFS hydrolysis; for activity at 10 µM: read-out: % activity at 10; for activity at 100 µM: read-out: % activity at (100)
T1 construct: polyhistidine (N); made in house; host or cells: Escherichia coli (pBAD/His vector)
Experimental: Rat recombinant neurolysin—N-terminal polyhistidine tagged recombinant rat neurolysin was produced in Escherichia coli using a plasmid construct in pBAD/His vector system (Invitrogen) kindly provided by Dr. David W. Rodgers (University of Kentucky) (32,33). Bacterial culture was carried out in Terrific Broth in 2 L Erlenmeyer flasks using an incubator shaker (1-2400, New Brunswick Scientific). Expression was induced by addition of arabinose (1 mM final concentration), the cells were pelleted 3 h after induction and stored at −80° C. freezer. Bacterial pellets were resuspended and lysed in phosphate buffer (20 mM NaH2PO4, 500 mM NaCl, 0.05% Tween-20, pH 8.0) containing 0.25 mg/ml lysozyme, 1 mM phenylmethylsulfonyl fluoride, 0.05 mg/ml DNAse and 0.02 mg/ml RNase, followed by brief sonication. After centrifugation (40,000×g, 20 min at 4° C.) the supernatant was applied to a Ni-NTA Superflow cartridge (Qiagen), followed by washing and elution of recombinant neurolysin with phosphate buffer containing 25 and 250 mM imidazole, respectively. The eluted protein was further purified by size exclusion chromatography using a TSK gel BioAssist G2SWxl column (Tosoh bioscience) in AKTA Purifier FPLC system (GE Healthcare). […] Specific activity of recombinant neurolysin was determined by an enzymatic assay described below.
All assays were initiated by addition of QFS (100 μl assay volume in 96-well plates), and each experimental sample was present in duplicate.
In all experiments, test compounds were incubated with neurolysin for 10 min at 37° C. before addition of the substrate to start the reaction. All test compounds were dissolved in DMSO at 10 to 50 mM stock concentrations.
Statistical Analyses—statistical analyses and curve fitting were conducted with GraphPad Prism 6.0 software. For each enzymatic reaction, slope of the line which represents the initial velocity (Vo) for the reaction progress curve was calculated using the liner regression model of the software (Vo=Slope=Δ fluorescent intensity of the reaction product/Δ time). EC50 values for the modulators were calculated by fitting initial velocity values for hydrolysis of QFS by neurolysin in the presence of varying concentrations of a modulator into a nonlinear regression model for the three-parameter log(stimulator) vs. response equation [Y=Bottom+(Top−Bottom)/(1+10^((Log EC50−X)))].

[2] = molecular target: T2, human recombinant neurolysin (Homo sapiens, UniProt Q9BYT8); assay: Enzymatic assay: QFS hydrolysis by human recombinant neurolysin; format: biochemical
T2 construct: purchased R & D systems 3814-ZN
Experimental: Enzymatic assays—activity of neurolysin was measured in a continuous assay by documenting the increase in fluorescence occurring upon cleavage of a quenched fluorescent substrate (QFS) Mca-Pro-Leu-Gly-Pro-D-Lys(DNP)-OH (Bachem) (25,36). […] All assays were initiated by addition of QFS (100 μl assay volume in 96-well plates), and each experimental sample was present in duplicate.
Screening of test compounds—primary screening of top-ranked 40 compounds (received from NCI DTP) was carried out at 10 and 100 μM final assay concentrations. […] In all experiments, test compounds were incubated with neurolysin for 10 min at 37° C. before addition of the substrate to start the reaction. […]

[3] = molecular target: T3, mouse brain neurolysin (Mus musculus, UniProt Q91YP2); assay: Enzymatic assay: QFS hydrolysis by mouse brain-purified neurolysin; format: biochemical
T3 construct: P10 mouse forebrains were used for purification of native neurolysin; from tissue; host or cells: P10 mouse forebrain, soluble fraction, size-exclusion fraction
Experimental: In brief, forebrains were homogenized in hypotonic buffer (20 mM NaPO4, pH 7.2) followed by gentle sonication and centrifugation (30 min at 48,000×g at 4° C.). The resulting supernatant was filtered through a 100 kDa cut-off centrifugal filtering unit and concentrated in a 30 kDa cut-off centrifugal filtering unit (Amicon Ultra; Millipore). Neurolysin was semi-purified from the concentrate by size exclusion chromatography using a Superdex 200 Increase 10/300 GL column (GE Healthcare) in AKTA Purifier FPLC system (GE Healthcare). Elution of neurolysin was tracked by the enzymatic assay described below, and the fraction with the highest neurolysin activity was directly used for the experiments.
Enzymatic assays—activity of neurolysin was measured in a continuous assay by documenting the increase in fluorescence occurring upon cleavage of a quenched fluorescent substrate (QFS) Mca-Pro-Leu-Gly-Pro-D-Lys(DNP)-OH (Bachem) (25,36). […]
Statistical Analyses—statistical analyses and curve fitting were conducted with GraphPad Prism 6.0 software. For each enzymatic reaction, slope of the line which represents the initial velocity (Vo) for the reaction progress curve was calculated using the liner regression model of the software (Vo=Slope=Δ fluorescent intensity of the reaction product/Δ time). […]

[4] = molecular target: T4, angiotensin converting enzyme (ACE) (Homo sapiens, UniProt P12821); assay: Peptidase selectivity: quenched fluorescent substrate hydrolysis by ACE; format: biochemical; details: for inhibition at 300 µM: 300 μM compound, read-out: inhibited activity of ACE by; for effect on activity of ACE (in words): concentration-response up to 300 μM
T4 construct: purchased R & D systems 929-ZN

[5] = molecular target: T5, angiotensin converting enzyme 2 (ACE2) (Homo sapiens, UniProt Q9BYF1); assay: Peptidase selectivity: quenched fluorescent substrate hydrolysis by ACE2; format: biochemical; details: for inhibition at 300 µM: 300 μM compound, read-out: inhibited activity of ACE2 by; for effect on activity of ACE2 (in words): concentration-response up to 300 μM
T5 construct: purchased R & D systems 933-ZN

[6] = molecular target: T6, neprilysin (NEP) (Homo sapiens, UniProt P08473); assay: Peptidase selectivity: quenched fluorescent substrate hydrolysis by NEP; format: biochemical; details: 300 μM compound; read-out: inhibited activity of NEP by
T6 construct: purchased R & D systems 1182-ZNC

[7] = molecular target: thimet oligopeptidase (TOP) (Homo sapiens, UniProt P52888); assay: Peptidase selectivity: quenched fluorescent substrate hydrolysis by TOP; details: for inhibition at 300 µM: read-out: inhibited activity of TOP by; for effect on activity of TOP (in words): concentration-response up to 300 μM
Experimental: Activity of recombinant human TOP was assessed in the same way as for neurolysin, except that the assay was carried out in the presence of 0.1 mM dithiothreitol (37).

[8] = Plasma and brain protein binding, rapid equilibrium dialysis (RED); format: in vitro ADME, mouse; details: for fu in Plasma: 500 ng/mL
Experimental: Plasma and Brain Protein Binding: The rapid equilibrium dialysis (RED) plate and single-use inserts with a membrane MWCO of 8 kDa and sealing tapes for 96-well plates were purchased from (Pierce Biotechnology, Thermo Fisher Scientific, Waltham, Mass.). Test compounds were dissolved in dimethyl sulfoxide and then diluted to 10 μg/mL with water for binding studies. The stock solutions (10 μg/mL) were added to mouse brain homogenates or plasma. The final concentration of the compounds for the equilibrium dialysis experiment was 500 ng/mL. The RED device was assembled according to the manufacturer's instructions. A 200 μL aliquot of plasma or brain homogenate spiked with 500 ng/mL of selected compound was added to the sample chamber of insert (donor) and 400 μL of DPBS was added to the buffer chamber of the dialysis membrane (receiver). Then, the base plate was covered with a sealing tape and was incubated at 37° C. on an orbital shaker at 250 rpm for 4 hours to achieve equilibrium. Compounds were evaluated in triplicate for each experiment. At the end of incubation, equal volumes from both donor and receiver chambers were taken and placed in separate microcentrifuge for content analysis using LC-MS/MS.

[9] = in vitro; details: mouse
[10] = molecular target: T7, Neurolysin (Nln) (Rattus norvegicus, UniProt P42676); assay: Nln activation in isolated enzyme assay (A50, Amax); format: biochemical; details: 95% CI in parentheses; for Amax (maximum % activation achieved): 100% = normal enzyme turnover
T7 construct: polyhistidine (N); made in house; host or cells: Escherichia coli (pBAD/His vector), if the rat enzyme of b61 was used

[11] = tested on: co-culture of primary mouse astrocytes and immortalized mouse endothelial cells (bEnd3); assay: In vitro BBB permeability, apical to basolateral transport; format: in vitro ADME; details: 10 μg/mL, 37° C.
Experimental: The permeability coefficient (Pe) was calculated from the cleared volume of each compound versus time. Values represent the mean±SD of three measurements.
Mouse primary astrocytes were isolated from the cerebral cortices of one day old pups (CD-1 mice, Charles Rivers Laboratory) following a literature method.^36 After extracting the brain, cortices were separated, minced and placed in Hank's balanced salt solution (HBSS) without calcium and magnesium, supplemented with gentamycin (10 μg/m). […] The cell suspensions were seeded into a T75 flask and the medium was changed every 3 days for 10-14 days or until reaching confluency.
For bEnd3 and astrocyte co-culture, the Transwell filters ([…] pore size, 12-well; Corning, Lowell, Mass.) were used. First, the Transwell filter was inverted and astrocytes at a density of 150,000 cells/filter were seeded onto the abluminal side of the filter and allowed to adhere for 4 hours. Then the Transwell filter was inverted back and the cells were grown for 2 days in astrocyte medium. At the end of 48 hours, bEnd3 cells at a density of 50,000 cells/filter were seeded onto the upper/luminal side of the filter and the co-culture of astrocytes and bEnd3 cells were grown for an additional 8 days. The medium for both compartments were changed every other day according to literature proceedures.^37
The apparent permeability coefficient (Pe, in cm/min) was calculated according to the cleared volume of each time point, as previously described.^38,39
Permeability measurement for each compound was run for 120 minutes. The media was removed and transwells were rinsed and incubated with HBSS buffer at 37° C. for 30 minutes. […] Concentration of compounds was determined by LC-MS/MS. Since the blank Transwell insert itself (without cells) provides resistance to the passage of buffer and compound from the donor to receiver chamber, the permeability of each compound was also measured in a blank insert and the final permeability coefficient results were calculated by considering the permeability of each compound in a blank insert.

[12] = In vitro metabolic stability in mouse plasma and brain homogenate; details: 10% mouse brain homogenate; 500 ng/mL; 37° C.
[13] = QFS 15 μM, absence of dynorphin A (1-13)
[14] = QFS 15 μM, presence of dynorphin A (1-13) 1 μM
[15] = QFS 25 μM, neurolysin 0.3 nM, 100% = no compound

T5 sequence (Q9BYF1 18-805): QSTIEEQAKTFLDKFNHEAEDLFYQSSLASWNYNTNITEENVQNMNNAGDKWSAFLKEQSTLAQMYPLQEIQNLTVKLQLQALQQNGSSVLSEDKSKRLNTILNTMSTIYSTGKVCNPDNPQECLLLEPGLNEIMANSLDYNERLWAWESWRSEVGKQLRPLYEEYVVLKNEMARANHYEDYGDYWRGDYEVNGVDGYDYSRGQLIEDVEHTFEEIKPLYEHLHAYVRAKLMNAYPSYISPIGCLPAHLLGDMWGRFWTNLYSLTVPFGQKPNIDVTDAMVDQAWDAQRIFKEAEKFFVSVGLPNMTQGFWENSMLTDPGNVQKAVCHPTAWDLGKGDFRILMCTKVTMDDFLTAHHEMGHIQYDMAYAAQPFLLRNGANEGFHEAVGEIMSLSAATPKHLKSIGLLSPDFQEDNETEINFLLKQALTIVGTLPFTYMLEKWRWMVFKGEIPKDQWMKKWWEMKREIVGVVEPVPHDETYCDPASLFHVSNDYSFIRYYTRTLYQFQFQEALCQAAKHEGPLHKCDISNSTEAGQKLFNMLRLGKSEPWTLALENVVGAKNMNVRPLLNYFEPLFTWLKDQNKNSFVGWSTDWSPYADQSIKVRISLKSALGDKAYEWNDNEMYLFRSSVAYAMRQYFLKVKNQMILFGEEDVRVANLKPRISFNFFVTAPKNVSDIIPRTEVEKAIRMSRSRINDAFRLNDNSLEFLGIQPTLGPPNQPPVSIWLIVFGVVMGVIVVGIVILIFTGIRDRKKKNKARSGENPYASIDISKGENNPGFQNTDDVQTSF
T1 sequence (P42676 38-704): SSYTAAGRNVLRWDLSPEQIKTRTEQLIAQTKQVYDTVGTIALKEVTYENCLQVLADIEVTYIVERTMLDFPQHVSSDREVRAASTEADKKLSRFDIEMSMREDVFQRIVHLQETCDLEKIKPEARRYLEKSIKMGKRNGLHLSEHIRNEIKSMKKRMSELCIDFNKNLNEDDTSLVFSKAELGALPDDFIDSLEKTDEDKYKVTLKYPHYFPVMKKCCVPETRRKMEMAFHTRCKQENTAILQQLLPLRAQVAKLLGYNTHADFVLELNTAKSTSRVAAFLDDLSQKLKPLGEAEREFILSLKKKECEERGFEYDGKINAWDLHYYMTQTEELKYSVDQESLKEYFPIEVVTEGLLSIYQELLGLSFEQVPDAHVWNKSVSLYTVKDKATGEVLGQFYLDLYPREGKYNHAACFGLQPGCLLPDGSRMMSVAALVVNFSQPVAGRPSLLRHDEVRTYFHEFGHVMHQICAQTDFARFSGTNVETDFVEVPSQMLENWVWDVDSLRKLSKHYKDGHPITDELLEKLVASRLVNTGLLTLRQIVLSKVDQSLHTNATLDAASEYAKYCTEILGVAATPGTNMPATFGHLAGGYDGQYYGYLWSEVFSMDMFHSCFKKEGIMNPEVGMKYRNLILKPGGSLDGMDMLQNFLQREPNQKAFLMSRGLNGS
T7 sequence (P42676 38-704): as above
Sequence of thimet oligopeptidase (TOP) (P52888 whole entry): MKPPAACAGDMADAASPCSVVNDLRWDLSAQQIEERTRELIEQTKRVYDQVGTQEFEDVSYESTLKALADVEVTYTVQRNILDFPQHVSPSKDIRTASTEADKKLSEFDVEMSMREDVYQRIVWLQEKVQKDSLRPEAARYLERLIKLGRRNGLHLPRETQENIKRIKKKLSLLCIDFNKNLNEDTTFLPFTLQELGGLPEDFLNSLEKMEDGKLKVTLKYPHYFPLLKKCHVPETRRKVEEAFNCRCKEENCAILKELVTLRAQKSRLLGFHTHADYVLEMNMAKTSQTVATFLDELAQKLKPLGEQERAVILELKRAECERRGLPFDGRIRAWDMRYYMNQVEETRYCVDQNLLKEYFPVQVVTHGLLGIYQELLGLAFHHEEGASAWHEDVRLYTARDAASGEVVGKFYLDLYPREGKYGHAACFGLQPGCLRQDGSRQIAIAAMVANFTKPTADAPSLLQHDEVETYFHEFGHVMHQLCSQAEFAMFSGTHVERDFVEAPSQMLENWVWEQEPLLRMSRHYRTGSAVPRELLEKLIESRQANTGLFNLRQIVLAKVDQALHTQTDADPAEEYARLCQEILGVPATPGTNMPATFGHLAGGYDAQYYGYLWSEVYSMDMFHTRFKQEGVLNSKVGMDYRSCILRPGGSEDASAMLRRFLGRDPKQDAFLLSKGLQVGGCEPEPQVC
T4 sequence (P12821 30-1306): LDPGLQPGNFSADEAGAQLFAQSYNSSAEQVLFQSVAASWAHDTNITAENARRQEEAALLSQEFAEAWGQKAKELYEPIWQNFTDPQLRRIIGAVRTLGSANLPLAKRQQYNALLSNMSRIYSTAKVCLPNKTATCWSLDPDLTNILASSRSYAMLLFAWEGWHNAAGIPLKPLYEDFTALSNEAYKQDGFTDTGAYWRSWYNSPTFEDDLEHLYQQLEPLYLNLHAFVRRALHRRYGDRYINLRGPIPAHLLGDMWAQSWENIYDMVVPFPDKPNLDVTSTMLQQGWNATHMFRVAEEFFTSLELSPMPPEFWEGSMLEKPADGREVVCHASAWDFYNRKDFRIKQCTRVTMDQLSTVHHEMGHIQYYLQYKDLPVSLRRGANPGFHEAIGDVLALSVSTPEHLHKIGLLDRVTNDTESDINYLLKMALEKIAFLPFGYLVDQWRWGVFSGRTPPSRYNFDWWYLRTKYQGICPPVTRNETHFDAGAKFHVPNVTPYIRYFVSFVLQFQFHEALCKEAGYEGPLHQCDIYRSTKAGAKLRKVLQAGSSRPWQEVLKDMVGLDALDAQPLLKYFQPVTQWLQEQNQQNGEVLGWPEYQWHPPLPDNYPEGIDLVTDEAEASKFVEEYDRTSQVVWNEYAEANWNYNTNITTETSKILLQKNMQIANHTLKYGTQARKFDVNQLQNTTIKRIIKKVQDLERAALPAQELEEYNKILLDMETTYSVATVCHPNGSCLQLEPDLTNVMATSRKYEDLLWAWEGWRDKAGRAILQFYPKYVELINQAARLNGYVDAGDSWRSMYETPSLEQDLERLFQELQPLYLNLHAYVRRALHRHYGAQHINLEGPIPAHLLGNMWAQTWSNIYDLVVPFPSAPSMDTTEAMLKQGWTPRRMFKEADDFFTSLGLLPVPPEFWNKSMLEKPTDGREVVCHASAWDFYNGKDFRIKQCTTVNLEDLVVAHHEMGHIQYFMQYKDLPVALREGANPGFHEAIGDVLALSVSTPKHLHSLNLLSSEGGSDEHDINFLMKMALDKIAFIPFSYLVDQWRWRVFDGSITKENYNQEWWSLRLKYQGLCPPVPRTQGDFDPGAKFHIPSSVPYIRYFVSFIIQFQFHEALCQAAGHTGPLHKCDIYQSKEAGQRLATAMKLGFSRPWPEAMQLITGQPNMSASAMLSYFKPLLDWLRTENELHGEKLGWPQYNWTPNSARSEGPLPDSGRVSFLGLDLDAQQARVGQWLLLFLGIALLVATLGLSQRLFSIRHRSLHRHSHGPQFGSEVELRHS
T6 sequence (P08473 whole entry): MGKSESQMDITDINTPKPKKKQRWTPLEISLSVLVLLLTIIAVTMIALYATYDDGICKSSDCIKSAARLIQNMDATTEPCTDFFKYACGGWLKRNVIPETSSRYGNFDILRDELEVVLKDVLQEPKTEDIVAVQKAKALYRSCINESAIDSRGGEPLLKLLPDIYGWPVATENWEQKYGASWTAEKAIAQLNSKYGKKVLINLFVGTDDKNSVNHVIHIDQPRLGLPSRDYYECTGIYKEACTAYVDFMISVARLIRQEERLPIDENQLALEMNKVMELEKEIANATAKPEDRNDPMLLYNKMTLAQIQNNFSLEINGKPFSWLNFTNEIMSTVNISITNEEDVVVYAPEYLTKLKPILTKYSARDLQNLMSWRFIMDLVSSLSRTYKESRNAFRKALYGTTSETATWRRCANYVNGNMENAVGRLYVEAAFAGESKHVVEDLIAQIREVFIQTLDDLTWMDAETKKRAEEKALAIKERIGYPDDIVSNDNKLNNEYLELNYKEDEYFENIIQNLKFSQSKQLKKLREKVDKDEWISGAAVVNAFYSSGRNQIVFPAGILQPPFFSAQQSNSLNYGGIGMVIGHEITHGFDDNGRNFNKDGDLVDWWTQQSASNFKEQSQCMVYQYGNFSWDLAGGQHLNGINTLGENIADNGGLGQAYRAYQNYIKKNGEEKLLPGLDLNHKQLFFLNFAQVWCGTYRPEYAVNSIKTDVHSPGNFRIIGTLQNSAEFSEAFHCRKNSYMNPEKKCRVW

Q: For `NC(Cc1c[nH]cn1)C(=O)NC(Cc1c[nH]cn1)C(=O)O` (mixture of isomers) [NlnA#2, D,L-histidyl-D,L-histidine], which “Km value decreased by” value [1] is on record?
A: ~42.4%

Q: And the “Vmax increased by” value [1]?
A: ~16.5%

Q: What about the Emax [1, 13] of the same compound?
A: 255%

Q: What about the Emax [1, 14] of the same compound?
A: 198%

Q: What about the Emax [1, 15] of the same compound?
A: 203%

Q: What about the Vmax ([1]; rNln + 40 μM modulator) of the same compound?
A: 112.5* FLU/ng protein per min

Q: And the Vmax ([1]; rNln + 100 μM modulator)?
A: 148.2*** FLU/ng protein per min

Q: What about the activity at 10 µM [1] of the same compound?
A: 122%

Q: And the activity at 100 µM [1]?
A: 206%

Q: And the Emax [2]?
A: 214%

Q: What about the Emax [3] of the same compound?
A: 258%

Q: And the inhibition at 300 µM [4]?
A: 12.2 ± 1.8%

Q: What about the inhibition at 300 µM [5] of the same compound?
A: 10.9 ± 2.9%

Q: And the inhibition at 300 µM [6]?
A: 1.6 ± 2%

Q: What about the inhibition at 300 µM [7] of the same compound?
A: 15.6 ± 2.6%

Q: With `N[C@@H](Cc1c[nH]cn1)C(=O)N[C@@H](Cc1c[nH]c2ccccc12)C(=O)O` [Compound 4, Histidine-tryptophan] as the compound, how does the “fu in Plasma” value ([8]; mouse plasma) read?
A: 0.93 ± 0.13

Q: What about the half-life at 500 ng/mL ([9]; plasma) of the same compound?
A: > 5 h

Q: What does the source list for `N[C@@H](Cc1c[nH]cn1)C(=O)NCCc1c[nH]c2ccccc12` [Compound 9d, (S)—N-(2-(1H-indol-3-yl)ethyl)-2-amino-3-(1H-imidazol-4-yl)propanamide]?
A: effect on activity of ACE (in words) [4]: show inhibition of ACE at high concentration; effect on activity of ACE2 (in words) [5]: showed inhibition of ACE2 at high concentrations; Amax (maximum % activation achieved) [10]: 259 (240.7 to 281) %; EC50 ([10]; A50 (concentration required to activate Nln by 50%)): 6.1 µM; fu in Plasma ([8]; mouse plasma): 0.63 ± 0.076; permeability coefficient (Pe) [11]: 1.07±0.12×10^−3 cm/min; half-life at 500 ng/mL ([9]; mouse plasma): > 16.7 h; t1/2 Mouse Brain [12]: 1.1 h and 1.09 ± 0.07 h; effect on activity of TOP (in words) [7]: only exhibited inhibition at concentrations approaching 300 μM

Q: Which EC50 ([10]; read-out: A50 (concentration required to activate Nln by 50%)) does the source give for `N[C@@H](Cc1c[nH]cn1)C(=O)NCc1ccc2ccccc2c1` [Compound 10a, (S)-2-amino-3-(1H-imidazol-4-yl)-N-(naphthalen-2-ylmethyl)propanamide] here?
A: 4.4 µM

Q: And the “Amax (maximum % activation achieved)” value [10]?
A: 210.9 (191.7 to 231.9) %

Q: What about the “effect on activity of TOP (in words)” value [7] of the same compound?
A: No appreciable inhibition

Q: Which “effect on activity of ACE (in words)” value [4] does the source give for `N[C@@H](Cc1c[nH]cn1)C(=O)NCc1cccc2ccccc12` [Compound 10c, (S)-2-amino-3-(1H-imidazol-4-yl)-N-(naphthalen-1-ylmethyl)propanamide] here?
A: no inhibition at the maximum concentration tested

Q: And the “effect on activity of ACE2 (in words)” value [5]?
A: no inhibition up to 300 μM

Q: What about the “Amax (maximum % activation achieved)” value [10] of the same compound?
A: 264 (256.3 to 272.6) %

Q: And the fraction unbound at 4 h, 500 ng/mL ([8]; mouse brain homogenate, read-out: fu in Brain)?
A: 0.052 ± 0.003

Q: What about the fraction unbound at 4 h, 500 ng/mL ([8]; mouse plasma, read-out: fu in Plasma) of the same compound?
A: 0.45 ± 0.013

Q: And the “permeability coefficient (Pe)” value [11]?
A: 1.09±0.09×10^−3 cm/min

Q: What about the “t1/2 Mouse Brain” value [12] of the same compound?
A: 1.33 h and 1.34 ± 0.033 h

Q: And the “effect on activity of TOP (in words)” value [7]?
A: No appreciable inhibition

Q: What does the source list for `N[C@@H](Cc1c[nH]cn1)C(=O)Nc1cccc2cccnc12` [Compound 11a, (S)-2-amino-3-(1H-imidazol-4-yl)-N-(quinolin-8-yl)propanamide]?
A: effect on activity of ACE (in words) [4]: show inhibition of ACE at high concentration; effect on activity of ACE2 (in words) [5]: showed inhibition of ACE2 at high concentrations; Amax (maximum % activation achieved) [10]: 252.4 (231.4 to 274.9) %; permeability coefficient (Pe) [11]: 1.14±0.02×10^−3 cm/min

Q: What does the source list for `N[C@@H](Cc1c[nH]cn1)C(=O)N[C@@H](Cc1ccc(O)cc1)C(=O)O` [NlnA#1, L-histidyl-L-tyrosine] (H-His-Tyr-OH)?
A: Km value decreased by [1]: ~43%; Vmax increased by [1]: ~29%; Emax [1, 13]: 292%; Emax [1, 14]: 238%; Emax [1, 15]: 235%; Vmax ([1]; rNln + 40 μM modulator): 124.2*** FLU/ng protein per min; Vmax ([1]; rNln + 100 μM modulator): 164.8*** FLU/ng protein per min; activity at 10 µM [1]: 121%; activity at 100 µM [1]: 226%; Emax [2]: 204%; Emax [3]: 190%; inhibition at 300 µM [4]: 22.6 ± 2.5%; inhibition at 300 µM [5]: 13.4 ± 2.9%; inhibition at 300 µM [6]: 2.9 ± 4.7%; inhibition at 300 µM [7]: 25.9 ± 0.7%
